Laboratory results taken from patent US11241475B2, “Preventive and/or therapeutic agent for osteogenesis imperfecta and other diseases” (Pharma Foods International Co., Ltd., priority 2016, dated 2022).

Legend:
male Crlj:WI rats [1] = test: Osteogenesis-promoting effect on growth plate and secondary cancellous bone, 21 days (Example 5); assay type: in vivo; details: peptide 100 mg/kg/day oral, hGH 500 μg/kg/day subcutaneous, versus control group, FIG. 14
Experimental: The synthetic peptide No. 1 or water for injection (control) was administered to male Crlj:WI rats at the age of four weeks by oral gavage using a gastric tube once a day for 21 days. The dosage of the synthetic peptide was 100 mg/kg/day. As a positive control, human growth hormone (hGH) was subcutaneously administered at 500 μg/kg/day once a day for 21 days. As fluorescent labels for the bone formation site, tetracycline (20 mg/kg) was subcutaneously administered on day 18 after the administration of the peptide or controls, and then calcein (10 mg/kg) was subcutaneously administered on day 20 after the administration of the peptide or controls. After the administration of the sample on day 21, the rats were kept under fasting conditions. […] Undecalcified specimens of the proximal tibia were prepared and photographed under a fluorescent microscope (BX-53, Olympus Corporation), and the bone morphology was measured using a morphometry system (Histometry RT digitizer, System Supply Co., Ltd.) and an analysis software (CSS-840 cancellous bone morphometry version, System Supply Co., Ltd.). The longitudinal growth rate (Lo.G.R.) of the epiphyseal plate per day was determined by measuring the distance between the tetracycline and calcein labels and dividing the distance by the time interval between the administrations of the two fluorescent labels (two days).

male Crlj:WI rats [2] = test: Bone growth-promoting effect on rats in the growth phase, seven days (Example 3); assay type: in vivo; details: hGH 500 μg/kg/day subcutaneous, versus control group
Experimental: The synthetic peptide No. 1 or water for injection (control) was administered to male Crlj:WI rats at the age of four weeks by oral gavage using a gastric tube once a day for seven days (n=10 in each group). The dosage of the synthetic peptide was 1, 10 or 100 mg/kg/day. As a positive control, human growth hormone (hGH) (Norditropin, Japan Standard Commodity Classification Number: 872412) was subcutaneously administered at 500 μg/kg/day once a day for seven days. As fluorescent labels for the bone formation site, tetracycline (20 mg/kg) was subcutaneously administered on day 4 after the administration of the peptide or controls, and then calcein (10 mg/kg) was subcutaneously administered on day 6 after the administration of the peptide or controls. After the administration of the sample on day 7, the rats were kept under fasting conditions. […] Undecalcified specimens of the proximal tibia were prepared and photographed under a fluorescent microscope (BX-53, Olympus Corporation), and the bone morphology was measured using a morphometry system (Histometry RT digitizer, System Supply Co., Ltd.). The longitudinal growth rate (Lo.G.R.) of the growth plate per day was determined by measuring the distance between the tetracycline and calcein labels and dividing the distance by the time interval between the administrations of the two fluorescent labels (two days).

male Crlj:WI rats [3] = test: Calcification rate and morphometry in secondary cancellous bone, seven days (Example 6); assay type: in vivo; details: peptide 1, 10 or 100 mg/kg/day oral, hGH 500 μg/kg/day subcutaneous, versus control group, FIG. 18
Experimental: The synthetic peptide No. 1 or water for injection (control) was administered to male Crlj:WI rats at the age of four weeks by oral gavage using a gastric tube once a day for seven days (n=10 in each group). The dosage of the synthetic peptide was 1, 10 or 100 mg/kg/day. As a positive control, human growth hormone (hGH) (Norditropin, Japan Standard Commodity Classification Number: 872412) was subcutaneously administered at 500 μg/kg/day once a day for seven days. As fluorescent labels for the bone formation site, tetracycline (20 mg/kg) was subcutaneously administered on day 4 after the administration of the peptide or controls, and then calcein (10 mg/kg) was subcutaneously administered on day 6 after the administration of the peptide or controls. After the administration of the sample on day 7, the rats were kept under fasting conditions. […] Undecalcified specimens of the proximal tibia were prepared and photographed under a fluorescent microscope (BX-53, Olympus Corporation), and the bone morphology was measured using a morphometry system (Histometry RT digitizer, System Supply Co., Ltd.). The daily calcification rate (mineral apposition rate) was determined by measuring the distance between the tetracycline and calcein labels in the secondary cancellous bones and dividing the distance by the time interval between the administrations of the two fluorescent labels (two days).

[4] = Effect on body weight (Example 7); assay type: in vivo; details: rats, days 1, 3, 5 and 7; peptide 1, 10 or 100 mg/kg/day oral, hGH 500 μg/kg/day subcutaneous; FIG. 24
Experimental: The synthetic peptide No. 1 or water for injection (control) was administered to male Crlj:WI rats at the age of four weeks by oral gavage using a gastric tube once a day for seven days (n=10 in each group). The dosage of the synthetic peptide was 1, 10 or 100 mg/kg/day. As a positive control, human growth hormone (hGH) (Norditropin, Japan Standard Commodity Classification Number: 872412) was subcutaneously administered at 500 μg/kg/day once a day for seven days. The body weight was measured on days 1, 3, 5 and 7 of administration.

[5] = tested on: insulin-like growth factor (IGF-1); test: IGF-1 production: peptide No. 2 versus reverse sequence and constituent amino acids (Example 9); assay type: in vivo; details: rats, single oral dose 10 mg/kg, 45 minutes, groups No. 2, R-No. 2, AA, control
Experimental: The synthetic peptide No. 2, a peptide consisting of a reverse sequence of the peptide No. 2 (SEQ ID NO: 3; herein also called R-No. 2), constituent amino acids of the synthetic peptide No. 2 (herein also called AA), or water for injection (control) was orally administered as a single dose to male Wistar rats at the age of four weeks by using a gastric tube (n=6 in each group). The dosage of the synthetic peptide, the reverse sequence peptide and the constituent amino acids was 10 mg/kg. At 45 minutes after administration, the rats were euthanized under anesthesia, and the liver was harvested. The concentration of IGF-1 in the serum and liver was measured by ELISA (Mouse/Rat IGF-I Quantikine ELISA Kit (MG100), R&D Systems, Inc.). For the serum IGF-1 concentration, the difference (Δ value) before and after administration was also determined.

[6] = tested on: insulin-like growth factor (IGF-1); test: Promoting effect on IGF-1 production after single oral dose (Example 8); assay type: in vivo; details: rats
Experimental: The synthetic peptide No. 1 or No. 2 or water for injection (control) was orally administered as a single dose to male Wistar rats at the age of four weeks by using a gastric tube (n=6 in each group). The dosage of the synthetic peptide No. 1 or No. 2 was 10 mg/kg. The blood was collected from the tail before administration and 30, 45, 60 and 90 minutes after administration, and the serum was separated. At 120 minutes after administration, the whole blood was collected from the abdominal vena cava under anesthesia and the rats were euthanized (see FIG. 25). The concentration of IGF-1 in the serum was measured by ELISA (Mouse/Rat IGF-I Quantikine ELISA Kit (MG100), R&D Systems, Inc.).
(§1) The concentration dependence of the synthetic peptides was examined. The synthetic peptide No. 1 was orally administered as a single dose of 1, 5 or 10 mg/kg (n=6 in each group). At 60 minutes after administration, the rats were euthanized under anesthesia, and the liver was harvested. The concentration of IGF-1 in the serum and liver was measured. For the serum IGF-1 concentration, the difference (Δ value) before and after administration was also determined.
as §1, with “The” for “The concentration dependence of the synthetic peptides was examined. The”, “No. 2” for “No. 1”, “administered to the rats” for “administered”, “of 0.1, 1” for “of 1, 5”, “At 45” for “At 60”

[7] = tested on: mouse osteoblast-like cell line MC3T3-E1 Subclone-4; test: Proliferation-promoting activity on osteoblastic precursor cells (BrdU uptake); assay type: cell-based
Experimental: The mouse osteoblast-like cell line MC3T3-E1 Subclone-4 (ATCC No. CRL-2593) was cultured in α-MEM medium supplemented with 10% FBS at 37° C. in 5% CO2-95% air to subconfluence. The cells were collected by trypsinization. The collected cells were suspended at 5×10^4 cells/mL in fresh α-MEM medium with the same supplement. One hundred microliters of the cell suspension was seeded in each well of a 96-well plate, and precultured at 37° C. in 5% CO2-95% air. On the next day, the medium was replaced with α-MEM medium containing the sample dissolved therein with a supplement of 0.1% FBS. The cells were further cultured for 24 hours. The proliferative activity of the osteoblastic precursor cells was assessed by measuring the amount of BrdU uptake. The proliferation-promoting activity of the sample on the osteoblastic precursor cells was expressed as a value relative to the proliferation level of the cells in the absence of the sample, which was taken as 100.

[8] = tested on: mouse chondrogenic cell line ATDC5; test: Proliferation-promoting activity on chondrogenic cells (BrdU uptake); assay type: cell-based; details: ATDC5, 24 hours, relative to absence of sample = 100, FIGS. 5 and 6
Experimental: The mouse chondrogenic cell line ATDC5 (RCB0565) was cultured in DMEM/F-12 medium supplemented with 5% FBS, 3×10-8 M sodium selenite and 5 μg/mL human transferrin at 37° C. in 5% CO2-95% air to subconfluence. The cells were collected by trypsinization. The collected cells were suspended at 5×10^4 cells/mL in fresh DMEM/F-12 medium with the same supplements. One hundred microliters of the cell suspension was seeded in each well of a 96-well plate, and precultured at 37° C. in 5% CO2-95% air. On the next day, the medium was replaced with DMEM/F-12 medium containing the sample dissolved therein with a supplement of 3×10^−8 M sodium selenite and 5 μg/mL human transferrin. The cells were further cultured for 24 hours. The proliferative activity of the chondrogenic cells was assessed by measuring the amount of BrdU uptake. The proliferation-promoting activity of the sample on the chondrogenic cells was expressed as a value relative to the proliferation level of the cells in the absence of the sample, which was taken as 100.

| Substance | longitudinal growth rate (Lo.G.R.) of the epiphyseal plate per day (male Crlj:WI rats [1]) | area of the hypertrophic cartilage layer (male Crlj:WI rats [2]; peptide 10 mg/kg/day oral, FIG. 9) | longitudinal growth rate (Lo.G.R.) of the growth plate per day (male Crlj:WI rats [2]; peptide 1, 10 or 100 mg/kg/day oral, FIG. 8) | calcification rate (mineral apposition rate) in the secondary cancellous bone (male Crlj:WI rats [3]) | change in the body weight [4] | concentration of IGF-1 in the serum ([5]; FIG. 32) | concentration of IGF-1 in the liver ([5]; FIG. 33) | concentration of IGF-1 in the serum (time course) ([6]; single oral dose 10 mg/kg, at 45 and 60 minutes after administration, versus control, FIG. 27) | dose dependence of IGF-1 concentration in the serum and liver ([6]; single oral dose 0.1, 1 or 10 mg/kg, 45 minutes) | concentration of IGF-1 in the serum ([6]; single oral dose 0.1, 1 or 10 mg/kg, 45 minutes after administration, versus control group, FIG. 30) | concentration of IGF-1 in the liver ([6]; single oral dose 0.1, 1 or 10 mg/kg, 45 minutes after administration, versus control group, FIG. 31) | proliferation-promoting activity on osteoblastic precursor cells ([7]; MC3T3-E1, 24 hours, BrdU uptake, relative to absence of sample = 100, FIGS. 3 and 4) | concentration at which the proliferation-promoting effect is exhibited ([7]; MC3T3-E1, BrdU uptake) | proliferation-promoting activity on osteoblastic precursor cells, comparison between the peptides ([7]; MC3T3-E1, BrdU uptake, No. 2 versus No. 1) | proliferation-promoting activity on chondrogenic cells [8] |
| --- | --- | --- | --- | --- | --- | --- | --- | --- | --- | --- | --- | --- | --- | --- | --- |
| hGH: human growth hormone (hGH) (Norditropin), positive control, subcutaneously administered | significant promotion of bone growth | significantly larger | significant promotion of bone growth | significant increase | No significant change | – | – | – | – | – | – | – | – | – | – |
| Val-Asn-Pro-Glu (VNPE) [synthetic peptide No. 2] | – | – | – | – | – | significantly higher | significantly higher | significantly higher | increased in a dose-dependent manner | significantly higher | significantly higher | promoted the proliferation | sufficiently exhibited its effect at a low concentration | higher activity than the synthetic peptide No. 1 | promoted the proliferation |
